Measured values taken from article PMC13195669, “GPR3 Ligands Discovered through Combined Virtual and Conformational Biosensor-Based Screening” (Journal of the American Chemical Society, 2026).

Key:
β2AR = assay: β2AR-HaloTag/Nluc conformational biosensor (negative control) in HEK293A cells; assay type: cell-based, human; details: β2AR-HaloTag/Nluc as negative control; HEK293A stable
Description: Initially, all 93 molecules were tested for activity at the GPR3 biosensor at a concentration of 1 μM (Figure a). […] Of the five compounds that emerged from the virtual screen, three–hereafter referred to as virtual hit 1–3, VH1/2/3–were selected for in-house chemical synthesis (compounds 52, 93, and 115; cf. Scheme , Figure S6), providing compounds of ≥99% purity for hit validation (NMR spectra: Figures S7–S142; HPLC purity: Figures S143–S218). For VH1, the racemic mix, rac-VH1/52, was synthesized and used for testing. Compounds 52, VH2/93, and VH3/115 (Figure S6) were then validated with the GPR3 biosensor including β2AR-HaloTag/Nluc as a negative control.
BRET-based GPCR conformational sensor experiments
Cells expressing the conformational GPCR biosensors were grown for 24 h (stable cells) or 48 h (transiently transfected cells) in white 96-well plates and washed with 100 µl of HBSS. After washing, cells were incubated for 2 minutes with a 1/1000 solution of the furimazine stock solution (Promega; cat. no. N1662). Three baseline BRET reads were recorded and averaged prior to the addition of serial dilutions of ligands or veh icle control and subsequent BRET reads. All experiments were con-ducted at 37 °C. BRE T donor emission was quantified with a 470/80 nm monochromator. BRET acceptor emission was quan-tified using a 660/100 nm monochromator. Experiments were carried out using a CLARIOstar plate reader. […]
FRET and BRET ratios were defined as acceptor emission/donor emission. […] To quantify ligand-induced changes ΔFRET and ΔBRET were calculated for each well as a percent over basal ([(Ratiostim − Ratiobasal)/Ratiobasal] × 100). […]
Data from FRET/BRET experiments were fitted using a three-parameter fit. Z-factors expressing the high-throughput suita-bility were calculated with the following equation: […]
Commercially available chemicals and solvents were purchased from standard commercial suppliers (Merck (Darmstadt, Ger-many), Sigma-Aldrich (Munich, Germany), Acros Organics (Geel, Belgium), Alfa Aesar (Karlsruhe, Germany), abcr (Karlsruhe, Germany), BLD Pharmatech (Reinbek, Germany) or TCI Europe (Zwijndrecht, Belgium) and were used as received. Deuter-ated solvents for nuclear magnetic resonance (1H NMR and 13C NMR) spectra were purchased from Deutero GmbH (Kastel-laun, Germany). All reactions carried out with dry solvents were accomplished in dry flasks under nitrogen or argon atmos-phere. For the preparation of buffers, HPLC eluents, and stock solutions millipore water was used. […] The reactions were monitored by thin layer chromatography (TLC) on Merck silica gel 60 F254 aluminium sheets and spots were visualized under UV light at 254 nm, by potassium permanganate or ninhydrin staining. […]

GPR3 [1] = target: T1, GPR3 (Homo sapiens, UniProt P46089); assay: FRET/BRET cAMP biosensor in HEK293A cells cotransfected with GPR3; assay type: cell-based; details: cAMP biosensor; pcDNA vs GPR3 transfected HEK293A
T1 construct: host or cells: HEK293A, transient
Excerpt: With the first GPR3 ligands identified by using a conformational readout in our hands, we next wanted to understand whether these compounds could have been detected in a cAMP-based assay, which has been used extensively in the past to screen for GPR3 ligands. We therefore tested rac-VH1/52, VH2/93 and VH3/115 in cells expressing a cAMP biosensor.
3 Effect of rac-VH1/52, VH2/93 and VH3/115 on GPR3-dependent cAMP production. (a–c) Vehicle-corrected BRET changes induced by rac-VH1/52 (a), VH2/93 (b) or VH3/115 (c) in HEK293A cells transiently transfected with a cAMP BRET sensor along with pcDNA or GPR3. […] Statistical significance was tested using Two-Way ANOVA followed by Sidak multiple comparison (*: […]; **: p < 0.01). […]
Plasmids and molecular cloning
The H187-EPAC-FRET sensor7 was kindly provided by K. Jalink (The Netherlands Cancer Institute, Amsterdam, The Nether-lands). The BRET-based cAMP sensor CAMYEL8 was kindly provided by Laura Humphrys (University of Regensburg, Regens-burg, Germany). Plasmids encoding the conformational biosensors α2AAR- and β2AR-HaloTag/Nluc9 and the Gs heterotrimer dissociation sensor10 were previously described. The expression plasmid encoding N-terminally HA-tagged GPR3 (cat. no.
#GPR003TN00) on a pcDNA3.1+ vector was obtained from the cDNA resource center (cdna.org). The Nluc and HaloTag in-serts were amplified with overhanging restriction sites from β2AAR- HaloTag/Nluc and ligated to the full-length C-terminus or inserted into icl3 of GPR3, respectively, to obtain the conformational biosensor GPR3-HaloTag/Nluc. Point mutants of GPR3-HaloTag/Nluc were generated using the GeneArt Site-directed Mutagenesis System (Thermo Fisher Scientific). All con-structs were verified by sequencing (Eurofins genomics).
Poly-D-lysine, polyethylenimin hydrochloride (linear; average Mn 20 000; PEI) , […], LPA , forskolin, NECA and bovine serum albumin (BSA) were obtained from Sigma Aldrich (Merck KGaA). Dulbecco's Modified Eagle's Medium (DMEM), Dul-becco's Phosphate -Buffered Saline (DPBS) and G -418 (Geneticin) were from Gibco. Diphenyleneiodonium chloride (DPI) and AF64394 were purchased from Tocris (Bio -Techne). The TMB (3, 3', 5, 5' tetramethyl benzidine) substrate reagent set was from BioLegend. The Nluc substrate furimazine and the red fluorescen t HaloTag dye, HaloTag® NanoBRET® 618 Ligand, were obtained in a single kit from Promega (cat. no. N1662). D-luciferin-sodium and the S1PR1 agonist III were from Med-ChemExpress. The Rluc substrate coelenterazine 400a was from NanoLight Technology (cat. no. 340 -10). White -wall, white - bottomed 96 -well, black -wall, black bottomed and transparent 96 -well microtiter plates were from Brand.
HEK293A cells were used for transient transfection and grown in Dulbecco’s modified Eagle’s medium (DMEM) supplemented with 2 mM glutamine, 10 % fetal calf serum, streptomycin (0.1 mg/mL), and penicillin (100 U/mL) at 37 °C with 5 % CO2. […]
(§1) Transient transfection and plating
Resuspended cells (300,000 cells/mL) were transfected in suspension with a total of 1 μg DNA/mL suspension using PEI (1 mg/ml stock solution; 3 μL PEI solution per μg DNA). For cAMP experiments with FRET- or BRET-based sensors, resuspended cells were transfected with 500 ng pcDNA, wildtype GPR3 or GPR3-HaloTag/Nluc constructs along with 500 ng of the FRET-or BRET-based cAMP sensor per mL cell suspension. For cAMP experiments with GloSensor™ 22F, resuspended cells were transfected with 250 ng pcDNA or GPCR along with 500 ng of a 1:1 mix of pcDNA with the GloSensor™ 22F per mL cell sus-pension. Cells mixed with the transfection reagents were seeded onto poly-D-lysine–precoated, 96-well plates and grown for 48 h at 37 °C with 5 % CO2. Stable α2AAR-, β2AR- or GPR3-HaloTag/Nluc expressing cells were seeded 24 h before the experi-ment at a density of 800,000 cells/mL into white 96-well plates. To monitor changes in BRET in with conformational GPCR […]

GPR3 [2] = target: T2, GPR3 (Homo sapiens, UniProt P46089, INS231ASEIGTGFPFDPHYVEVLGERMHYVDVGPRDGTPVLFLHGNPTSSYVWRNIIPHVAPTHRCIAPDLIGMGKSDKPDLGYFFDDHVRFMDAFIEALGLEEVVLVIHDWGSALGFHWAKRNPERVKGIAFMEFIRPIPTWDEWPEFARETFQAFRTTDVGRKLIIDQNVFIEGTLPMGVVRPLTEVEMDHYREPFLNPVDREPLWRFPNELPIAGEPANIVALVEEYMDWLHQSPVPKLLFWGTPGVLIPPAEAARLAKSLPNCKAVDIGPGLNLLQEDNPDLIGSEIARWLSTLEISGGS); assay: BRET-based conformational GPR3 biosensor (GPR3-HaloTag/Nluc) in HEK293A cells; assay type: cell-based; details: for BRET response of GPR3 biosensor (direction, words): HEK293A
T2 construct: ligated to the full-length C-terminus; expressed in transfected cells; some experiments transient
Excerpt: To develop a conformational GPR3 biosensor that can be used in a microtiter well plate format, we employed the intramolecular BRET design previously validated for several GPCRs. − The BRET donor NanoLuc was fused to the receptor’s full-length C-terminus and the self-labeling protein tag, HaloTag, was inserted into GPR3′s third intracellular loop between amino acids Arg231 and His232 (Figure a; sequence in Figure S1). […]
Plasmids and molecular cloning […]
Plasmids encoding the conformational biosensors α2AAR- and β2AR-HaloTag/Nluc9 and the Gs heterotrimer dissociation sensor10 were previously described. The expression plasmid encoding N-terminally HA-tagged GPR3 (cat. no.
#GPR003TN00) on a pcDNA3.1+ vector was obtained from the cDNA resource center (cdna.org). The Nluc and HaloTag in-serts were amplified with overhanging restriction sites from β2AAR- HaloTag/Nluc and ligated to the full-length C-terminus or inserted into icl3 of GPR3, respectively, to obtain the conformational biosensor GPR3-HaloTag/Nluc. Point mutants of GPR3-HaloTag/Nluc were generated using the GeneArt Site-directed Mutagenesis System (Thermo Fisher Scientific). All con-structs were verified by sequencing (Eurofins genomics). […]
serum albumin (BSA) were obtained from Sigma Aldrich (Merck KGaA). Dulbecco's Modified Eagle's Medium (DMEM), Dul- […]
Diphenyleneiodonium chloride (DPI) and AF64394 were purchased from Tocris (Bio -Techne). The TMB (3, 3', 5, 5' tetramethyl benzidine) substrate reagent set was […]
were obtained in a single kit from Promega (cat. no. N1662). D-luciferin-sodium and the S1PR1 agonist III were from Med-ChemExpress. The Rluc substrate coelenterazine 400a was from NanoLight Technology (cat. no. 340 -10). White -wall, white - bottomed 96 -well, black -wall, black bottomed and transparent 96 -well microtiter plates were from Brand.
HEK293A cells were used for transient transfection and grown in Dulbecco’s modified Eagle’s medium (DMEM) supplemented with 2 mM glutamine, 10 % fetal calf serum, streptomycin (0.1 mg/mL), and penicillin (100 U/mL) at 37 °C with 5 % CO2. For the generation of stable GPR3 -HaloTag/Nluc cells, HEK293A cells grown in T75 flasks were transfected at a confluence of 40 – […]
Absence of mycoplasma contamination was routinely
as §1
Resuspended cells (300,000 cells/mL) were transfected in suspension with a total of 1 μg DNA/mL suspension using PEI (1 mg/ml stock solution; 3 μL PEI solution per μg DNA). […]
Cells mixed with the transfection reagents were seeded onto poly-D-lysine–precoated, 96-well plates and grown for 48 h at 37 °C with 5 % CO2. Stable α2AAR-, β2AR- or GPR3-HaloTag/Nluc expressing cells were seeded 24 h before the experi-ment at a density of 800,000 cells/mL into white 96-well plates. To monitor changes in BRET in with conformational GPCR […]
experiment. White plates were used for BRET and luminescence measurements, black plates for FRET experiments and trans-parent plates for absorbance-based quantification of receptor surface expression levels.

T2 sequence (P46089 with tags, fused parts or gaps with the stated changes): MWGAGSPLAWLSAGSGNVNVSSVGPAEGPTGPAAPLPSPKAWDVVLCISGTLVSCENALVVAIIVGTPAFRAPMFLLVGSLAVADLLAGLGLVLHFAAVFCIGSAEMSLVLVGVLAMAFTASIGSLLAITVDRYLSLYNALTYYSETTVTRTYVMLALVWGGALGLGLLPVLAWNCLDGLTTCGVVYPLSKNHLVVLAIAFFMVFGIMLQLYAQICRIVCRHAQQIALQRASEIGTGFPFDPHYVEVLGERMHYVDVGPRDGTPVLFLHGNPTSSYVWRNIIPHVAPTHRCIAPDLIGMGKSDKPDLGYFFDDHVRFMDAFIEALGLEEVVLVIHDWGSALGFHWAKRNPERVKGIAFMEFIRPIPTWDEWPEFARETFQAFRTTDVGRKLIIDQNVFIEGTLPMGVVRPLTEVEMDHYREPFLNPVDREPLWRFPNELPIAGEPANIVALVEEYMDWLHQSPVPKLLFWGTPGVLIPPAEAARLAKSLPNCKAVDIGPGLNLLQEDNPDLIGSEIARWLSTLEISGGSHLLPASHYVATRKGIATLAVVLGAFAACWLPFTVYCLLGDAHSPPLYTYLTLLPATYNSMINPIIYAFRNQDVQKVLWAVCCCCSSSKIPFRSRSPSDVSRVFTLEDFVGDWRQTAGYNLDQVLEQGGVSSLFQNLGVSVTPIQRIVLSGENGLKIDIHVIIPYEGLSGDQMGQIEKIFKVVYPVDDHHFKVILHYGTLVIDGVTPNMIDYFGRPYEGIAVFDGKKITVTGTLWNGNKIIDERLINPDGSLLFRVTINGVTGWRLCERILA
T1 sequence (P46089 whole entry): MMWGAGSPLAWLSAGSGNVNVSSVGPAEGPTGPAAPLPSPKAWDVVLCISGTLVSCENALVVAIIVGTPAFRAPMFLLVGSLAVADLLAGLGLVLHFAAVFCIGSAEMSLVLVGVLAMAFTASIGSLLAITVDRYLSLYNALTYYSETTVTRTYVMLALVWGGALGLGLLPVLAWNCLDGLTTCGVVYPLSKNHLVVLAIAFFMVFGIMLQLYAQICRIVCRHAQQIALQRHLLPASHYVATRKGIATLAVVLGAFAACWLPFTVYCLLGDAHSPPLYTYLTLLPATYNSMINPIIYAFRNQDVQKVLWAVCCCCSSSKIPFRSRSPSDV

Compound: O=C(C1COc2ccccc2O1)N1CCC(Cn2cncn2)(C2CCCCC2)CC1 (stereo not shown) [compound 93]
- specificity of conformational response for GPR3 vs β2AR-HaloTag/Nluc (β2AR): concentration-dependent and GPR3-specific conformational changes
- GPR3-dependent change in cAMP (GPR3 [1]): to a much lesser extent

Compound: CCCCCCCC/C=C\CCCCCCCC(N)=O [oleamide, reference compound]
- BRET response of GPR3 biosensor (direction, words) (GPR3 [2]): concentration-dependent decreases in BRET

Compound: CC(C)Oc1cc(Cl)ccc1CNc1cc(-c2ccccc2)nc2ncnn12 [AF64394, reference compound]
- BRET response of GPR3 biosensor (direction, words) (GPR3 [2]): time- and ligand-concentration-dependent increase in BRET
- EC50 (GPR3 [2]; transiently expressing HEK293A cells, read-out: EC50 of BRET increase at conformational GPR3 biosensor): 161 nM
- GPR3-dependent change in cAMP (GPR3 [1]): concentration-dependent reduction of cAMP

Compound: CCCCCCCC/C=C\CCCCCCCC(=O)NCCO [OEA, reference compound]
- BRET response of GPR3 biosensor (direction, words) (GPR3 [2]): concentration-dependent decreases in BRET
